This note sets out measurements from patent US11014896B2, “TRPA1 and TRPV4 inhibitors and methods of using the same for organ-specific inflammation and itch” (Duke University, priority 2014, dated 2021).

In one test the test system is IL-1β. In words: Keratinocyte IL-1β expression in UVB-exposed footpad after topical treatment. The test is classed as in vivo, mouse. To be noted: 5 mM GSK205 topical. How it is done: (§1) GSK205 topical treatment: A viscous solution of 68% EtOH/5% glycerol plus 1 mM or 5 mM GSK205 (none for control) was applied to hindpaws by rubbing in 20 μL, applied at time-points 1 hour and again 10 min before UV exposure.
Routine procedures were followed as described previously (Chen et al., 2009). Mice were perfused transcardially with 30 mL PBS, followed by 30 mL 4% paraformaldehyde. Tissues, including the L5 DRGs (bilateral), and footpad preparations, were dissected and post-fixed in 4% paraformaldehyde. Tissue blocks were further cryoprotected in 30% sucrose in PBS for 24-48 hours. For mouse TRPV4, keratin-specific antibodies, phospho-ERK, IL-6, IL-1β, CXCL5 and caspase-1, tissue was prepared as frozen blocks and subsequently sectioned on a cryostat. For CD68, CD15 (neutrophil elastase) and CD3, mouse skin was prepared by 2% PFA perfusion. […]

Test [1] can be described thus: Histopathology of UVB-photodermatitis in topically treated paw-pad skin. The test is classed as in vivo, mouse. Conditions: 5 mM GSK205 topical. How it is done: as §1
Another test deals with T1, human TRPV2 (Homo sapiens, UniProt Q9Y5S1).
T1 construct: expressed in transfected cells; host or cells: N2a cells
T1 sequence (Q9Y5S1 1-764): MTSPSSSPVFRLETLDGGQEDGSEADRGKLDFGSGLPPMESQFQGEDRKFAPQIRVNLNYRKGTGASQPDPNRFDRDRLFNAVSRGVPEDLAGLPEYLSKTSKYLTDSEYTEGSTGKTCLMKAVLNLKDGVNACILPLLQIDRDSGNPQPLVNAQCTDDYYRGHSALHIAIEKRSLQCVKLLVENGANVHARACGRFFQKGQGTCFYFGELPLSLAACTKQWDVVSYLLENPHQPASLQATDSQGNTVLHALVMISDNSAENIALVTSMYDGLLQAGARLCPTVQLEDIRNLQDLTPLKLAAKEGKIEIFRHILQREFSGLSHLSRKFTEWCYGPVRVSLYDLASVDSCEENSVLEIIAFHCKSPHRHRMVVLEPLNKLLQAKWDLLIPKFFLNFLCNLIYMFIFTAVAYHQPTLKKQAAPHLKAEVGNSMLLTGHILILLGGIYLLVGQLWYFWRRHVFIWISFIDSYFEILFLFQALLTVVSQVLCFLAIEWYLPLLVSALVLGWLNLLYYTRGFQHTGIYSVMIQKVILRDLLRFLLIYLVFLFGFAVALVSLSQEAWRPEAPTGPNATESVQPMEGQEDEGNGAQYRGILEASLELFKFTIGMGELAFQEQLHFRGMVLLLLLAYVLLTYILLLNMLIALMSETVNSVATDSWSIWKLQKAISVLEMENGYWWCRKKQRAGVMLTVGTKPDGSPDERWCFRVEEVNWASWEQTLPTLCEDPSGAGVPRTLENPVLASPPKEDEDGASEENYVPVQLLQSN
Nature of the test: Ca2+ signal in N2a cells transfected with human TRPV2. The test is classed as cell-based. To be noted: stimulation with hypotonicity (260 mosmol/L). How it is done:
(§2) Compounds were tested for their effect on TRPV1, TRPV2, and TRPV3. Methods were similar to those described in Example 15. Briefly, N2a cells were transfected with human TRPV1, TRPV2, or TRPV3. eGFP-transfection was used as control. For specific stimulation of TRPV1, 5 μM capsaicin was used. For stimulation of TRPV2, hypotonicity (260 mosmol/L) was used, based on previous reports of TRPV2 being osmotically responsive. N2a cells were not responsive to hypotonicity, and neither were control-transfected cells. For TRPV3-expressing cells, camphor (20% of a commercially available stock solution) was used. […] Stimulation and control protocols were applied as for TRPA1-expressing N2a cells as detailed above in Example 15.

In another test the target is T2, human TRPV3 (Homo sapiens, UniProt Q8NET8).
T2 construct: expressed in transfected cells; host or cells: N2a cells
T2 sequence (Q8NET8 1-790): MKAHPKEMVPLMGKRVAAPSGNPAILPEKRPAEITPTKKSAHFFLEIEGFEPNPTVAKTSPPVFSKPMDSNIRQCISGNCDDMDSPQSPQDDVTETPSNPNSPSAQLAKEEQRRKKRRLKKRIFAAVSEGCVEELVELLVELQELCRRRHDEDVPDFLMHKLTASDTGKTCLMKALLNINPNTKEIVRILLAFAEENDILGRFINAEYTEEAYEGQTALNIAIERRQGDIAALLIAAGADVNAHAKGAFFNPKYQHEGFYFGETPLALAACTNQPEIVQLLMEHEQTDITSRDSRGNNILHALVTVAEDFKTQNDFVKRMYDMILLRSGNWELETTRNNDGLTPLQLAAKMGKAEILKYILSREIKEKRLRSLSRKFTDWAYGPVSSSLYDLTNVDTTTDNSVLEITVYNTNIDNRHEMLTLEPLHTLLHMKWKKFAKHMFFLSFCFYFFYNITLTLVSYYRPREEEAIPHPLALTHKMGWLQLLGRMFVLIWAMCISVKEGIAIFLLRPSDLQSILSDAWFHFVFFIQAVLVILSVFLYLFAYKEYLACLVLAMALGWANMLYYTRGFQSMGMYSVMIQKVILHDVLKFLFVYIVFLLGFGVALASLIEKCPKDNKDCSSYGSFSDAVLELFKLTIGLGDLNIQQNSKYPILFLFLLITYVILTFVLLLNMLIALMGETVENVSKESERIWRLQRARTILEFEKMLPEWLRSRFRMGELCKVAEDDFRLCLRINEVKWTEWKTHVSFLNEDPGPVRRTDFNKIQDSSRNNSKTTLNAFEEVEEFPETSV
Nature of the test: Ca2+ signal in N2a cells transfected with human TRPV3. The test is classed as cell-based. To be noted: stimulation with camphor. How it is done:
as §2

Structures are written as SMILES. Entries after “also recorded” stand apart in the source; their conditions may differ.

For the compound `CN(CCc1ccc(Nc2nc(-c3cccnc3)cs2)cc1)Cc1ccccc1` [GSK205], in the test on IL-1β, the “keratinocyte expression of IL-1β in UVB-exposed footpad” value was “failed to upregulate; also recorded: attenuates keratinocyte expression of IL-1β”. In addition, in test [1], the “UVB-photodermatitis histopathology (inflammation)” value is on record as “virtual elimination of inflammation; also recorded: markedly reduced inflammatory infiltrate”.
Consider `CN(CCc1ccc(Nc2nc(-c3ccccc3)cs2)cc1)Cc1ccccc1` [Compound 16-8], for which, on human TRPV2, the “Ca2+ transience on TRPV2 stimulation” value was “not affected”. Moreover, the “Ca2+ transience on TRPV3 stimulation” value at human TRPV3 was “not affected”.
